From US20260091026A1, “METHODS OF TREATING INFLAMMATORY DISEASES” (INTERLINE THERAPEUTICS, INC., priority 2023, published 2026)
Where two headings read alike, the source gives them in different places.

Tests used:
RIPK2 (KD)/XIAP (BIR2) = target: T1, RIPK2 (KD)/XIAP (BIR2) (Homo sapiens, UniProt O43353); experiment: RIPK2-XIAP binding competition PPI assay (TR-FRET); settings: for Emax: read-out: PPI Amax; for IC50: GST-RIPK2 / His-XIAP (BIR2)-avi, 120 min at 23° C.
T1 construct: made in house; host or cells: baculovirus-infected Sf9 cells
From the text: The ability of selected compounds of Formula (I) to inhibit the binding of an His-XIAP (BIR2)-avi fusion protein to a GST-RIPK2 fusion protein was quantified employing the TR-FRET-based competition assay as described in the following paragraphs.
Recombinant fusion protein of N-terminal Glutathione-S-Transferase (GST) and a fragment of human RIPK2 (amino acids 1-310 of accession number 043353), expressed in baculovirus infected Sf9 cells, purified via glutathione affinity chromatography, was used as GST-RIPK2 fusion protein. Recombinant fusion protein of N-terminal 6xHistidine (His), a fragment of human XIAP (amino acids 152-231 of accession number P98170), and C-terminal avi tag, expressed in baculovirus infected Sf9 cells, purified via Nickel NTA affinity chromatography, was used as the His-XIAP (BIR2)-avi fusion protein.
For the assay, a working solution of 1 nM GST-RIPK2, 25 nM His-XIAP (BIR2)-avi, 6 nM Anti-His-XL665 […] (Revvity Catalogue No. 61HISXLB), and 0.5 nM Anti-GST-Tb(Revvity Catalogue No. 61GSTTLB) in 25 mM Tris-HCl 7.5, 0.5 mM ethylene glycol-bis(2-aminoethylether)-N,N,N′,N′-tetraacetic acid (EGTA), 10 mM magnesium chloride (MgCl2), 2.5 mM dithiothreitol (DTT), 0.01% (w/v) bovine serum albumin (BSA), 0.005% (w/v) Pluronic F-127 (Sigma), 0.5 mM sodium ortho-vanadate, 5 mM-Glycerophosphate disodium salt hydrate (BGP) was prepared. 50 nL of a 100-fold concentrated solution of each test compound in DMSO was dispensed via acoustic dispensing into a white low volume 384-well microtiter plate (Perkin Elmer Catalogue No. 6008280). Subsequently, 5 μL of the assay working solution were added.
The resulting mixture was incubated 120 min at 23° C. Subsequently, the amount of complex formed by the GST-RIPK2, XIAP (BIR2)-avi, Anti-His-XL665, and Anti-GST-Tb was evaluated by measurement of the resonance energy transfer from the Tb-cryptate to the XL665. Therefore, the fluorescence emissions at 520 nm and 665 nm after excitation at 337 nm were measured in a TR-FRET reader, e.g. a Pherastar FS(BMG Labtechnologies, Offenburg, Germany) or an Envision (PerkinElmer). The ratio of the emissions at 665 nm and at 520 nm was taken as the measure of the amount of the complex. The data were normalized (assay reaction without inhibitor=0% activity, 50 nM of GSK583=−100% activity).

[1] = test system: THP1-Dual cells, NF-κB pathway (SEAP); experiment: THP-1 Dual cell SEAP assay (L18-MDP stimulated); format: cell-based; settings: 10 ng/mL L18-MDP, 20-24 h, SEAP readout, read-out: IFNγ THP1 IC50
Description: THP1-Dual™ cells (InvivoGen Cat #thpd-nfis) allow simultaneous assessment of the NF-κB pathway, by monitoring the activity of secreted embryonic alkaline phosphatase (SEAP) as well as the IRF pathway, by assessing the activity of a secreted luciferase (Lucia). Cells were cultured according to manufacturers' recommendations. For the assay, cell concentration was adjusted to 7.14×10^5 cells/mL in assay media (RPMI 1640, 2 mM L-Glutamine, 25 mM HEPES, 10% fetal bovine serum (heat-inactivated for 30 min at 56° C.), Pen-Strep (100 U/mL)) and 35 μL of cell suspension (˜25,000 cells) per well were added to a flat bottom 384-well plate (white opaque). Plate was centrifuged at 300 g for 2 min, compounds were added in serial dilution series according to the plate layout (volumes ˜500 nL-0.0152 nL) and plate was incubated at 37° C. in 5% CO2 for 30 min. Using assay media, a L18-MDP stock solution, that results in a final concentration of 10 ng/mL L18-MDP in each well when adding 15 μL to each well, was prepared. 15 μL of L18-MDP stock solution was added to each well, while 15 μL of assay media was added to the negative control wells. Plates were subsequently incubated at 37° C. in 5% CO2 overnight (20-24 h).
For the SEAP assay: without disturbing the cells at the bottom of the well, 15 μL supernatant was transferred to a clear 384-well flat bottom plate and 35 μL QUANTI-Blue Solution per well was added. Following a 2 h incubation at 37° C., the optical density (OD) was measured at 620-655 nm using a microplate reader (PheraStar FS microplate reader with protocol for OD 620-655 nm).
Values of media-only wells were subtracted and % inhibition for each compound concentration relative to the DMSO/L18-MDP-treated controls was calculated. Inhibition values+/−SD were fitted by non-linear regression using Prism software (GraphPad PRISM Software) to calculate IC50 values.

[2] = 50 nM of GSK583 = -100% activity

T1 sequence (O43353 1-310): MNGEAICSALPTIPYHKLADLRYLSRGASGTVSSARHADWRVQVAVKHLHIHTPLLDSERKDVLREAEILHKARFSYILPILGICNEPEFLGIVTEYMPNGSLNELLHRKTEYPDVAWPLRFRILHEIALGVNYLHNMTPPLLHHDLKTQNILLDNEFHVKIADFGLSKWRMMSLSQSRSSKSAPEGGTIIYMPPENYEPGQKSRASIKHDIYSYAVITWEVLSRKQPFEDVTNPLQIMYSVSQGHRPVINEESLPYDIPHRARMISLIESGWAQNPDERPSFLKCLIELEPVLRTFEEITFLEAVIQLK

Compound | Emax (RIPK2 (KD)/XIAP (BIR2); [2]) [%] | IC50 (RIPK2 (KD)/XIAP (BIR2)) [nM] | IC50 ([1]; Homo sapiens) [nM] | PPI Amax (RIPK2 (KD)/XIAP (BIR2); [2]) | IC50 [1] [nM]
COc1cn2ncc(-c3cc(C(=O)N[C@H](C)c4ccccn4)n(C)n3)c2cc1S(=O)(=O)C(C)(C)C [Example 113, (R)-3-(5-(tert-butylsulfonyl)-6-methoxypyrazolo[1,5-a]pyridin-3-yl)-1-methyl-N-(1-(pyridin-2-yl)ethyl)-1H-pyrazole-5-carboxamide] | ≥ 80 | 100 to 1000 | 500 to 2500 |  | 
COc1cc2ncc(-c3cc(C(=O)N[C@H]4CCc5cccnc54)n(C)n3)n2cc1S(=O)(=O)C(C)(C)C [Example 64, (S)-3-(6-(tert-butylsulfonyl)-7-methoxyimidazo[1,2-a]pyridin-3-yl)-N-(6,7-dihydro-5H-cyclopenta[b]pyridin-7-yl)-1-methyl-1H-pyrazole-5-carboxamide] | ≥ 80 | 10 to 100 | 500 to 2500 |  | 
COc1cc2ncc(-c3cc(C(=O)N[C@@H]4C[C@@H]4c4ccccc4)n(C)n3)n2cc1S(=O)(=O)C(C)(C)C (single isomer, unassigned) [Example 31, cis-(1R,2R) or (1S,2S) 3-(6-(tert-butylsulfonyl)-7-methoxyimidazo[1,2-a]pyridin-3-yl)-1-methyl-N-(2-phenylcyclopropyl)-1H-pyrazole-5-carboxamide] |  | > 1000 |  | D (Amax of ≤30%) | > 2500
CCn1nc(-c2cnc3cc(OCCO)c(S(=O)(=O)C(C)(C)C)cn23)cc1C(=O)N[C@@H](C)c1cc(C)ccn1 [Example 135, (S)-3-(6-(tert-butylsulfonyl)-7-(2-hydroxyethoxy)imidazo[1,2-a]pyridin-3-yl)-1-ethyl-N-(1-(4-methylpyridin-2-yl)ethyl)-1H-pyrazole-5-carboxamide] | ≥ 80 | > 1000 | > 2500 |  | 
COc1cc2ncc(-c3cc(C(=O)N[C@H](C)c4ccc(F)cc4)n(C)n3)n2cc1S(=O)(=O)C(C)(C)C [Example 12, (R)-3-(6-(tert-butylsulfonyl)-7-methoxyimidazo[1,2-a]pyridin-3-yl)-N-(1-(4-fluorophenyl)ethyl)-1-methyl-1H-pyrazole-5-carboxamide] | ≥ 80 | 100 to 1000 | 500 to 2500 |  | 
COc1cc2ncc(-c3cc(C(=O)N[C@@H](C)c4ncccc4F)n(C)n3)n2cc1S(=O)(=O)C(C)(C)C [Example 51, (S)-3-(6-(tert-butylsulfonyl)-7-methoxyimidazo[1,2-a]pyridin-3-yl)-N-(1-(3-fluoropyridin-2-yl)ethyl)-1-methyl-1H-pyrazole-5-carboxamide] | 55 to 80 | > 1000 | > 2500 |  | 
COc1cc2ncc(-c3cc(C(=O)N[C@H](C)c4ncccc4F)n(C4CN(C)C4)n3)n2cc1S(=O)(=O)C(C)(C)C [Example 147, (R)-3-(6-(tert-butylsulfonyl)-7-methoxyimidazo[1,2-a]pyridin-3-yl)-N-(1-(3-fluoropyridin-2-yl)ethyl)-1-(1-methylazetidin-3-yl)-1H-pyrazole-5-carboxamide] | ≥ 80 | 100 to 1000 | 500 to 2500 |  | 
COc1cc2ncc(-c3cc(C(=O)NCc4noc(C)n4)n(C)n3)n2cc1S(=O)(=O)C(C)(C)C [Example 77, 3-(6-(tert-butylsulfonyl)-7-methoxyimidazo[1,2-a]pyridin-3-yl)-1-methyl-N-((5-methyl-1,2,4-oxadiazol-3-yl)methyl)-1H-pyrazole-5-carboxamide] | ≥ 80 | 100 to 1000 | > 2500 |  | 
CCn1nc(-c2cnc3cc(OCCO)c(S(=O)(=O)C(C)(C)C)cn23)cc1C(=O)NCc1ncc(C)s1 [Example 126, 3-(6-(tert-butylsulfonyl)-7-(2-hydroxyethoxy)imidazo[1,2-a]pyridin-3-yl)-1-ethyl-N-((5-methylthiazol-2-yl)methyl)-1H-pyrazole-5-carboxamide] | ≥ 80 | < 10 | < 100 |  | 
COc1cc2ncc(-c3cc(C(=O)NCc4ncccc4F)n(C)n3)n2cc1S(=O)(=O)C(C)(C)C [Example 49, 3-(6-(tert-butylsulfonyl)-7-methoxyimidazo[1,2-a]pyridin-3-yl)-N-((3-fluoropyridin-2-yl)methyl)-1-methyl-1H-pyrazole-5-carboxamide] | ≥ 80 | 10 to 100 | 500 to 2500 |  | 
COc1cc2ncc(-c3cc(C(=O)N[C@@H](C)c4ccccc4)n(C)n3)n2cc1S(=O)(=O)C(C)(C)C [Example 8, (S)-3-(6-(tert-butylsulfonyl)-7-methoxyimidazo[1,2-a]pyridin-3-yl)-1-methyl-N-(1-phenylethyl)-1H-pyrazole-5-carboxamide] | ≥ 80 | > 1000 | > 2500 |  | 
CCn1nc(-c2cnc3cc(OCCO)c(S(=O)(=O)C(C)(C)C)cn23)cc1C(=O)N[C@H](C)c1cc(C)sn1 [Example 132, (R)-3-(6-(tert-butylsulfonyl)-7-(2-hydroxyethoxy)imidazo[1,2-a]pyridin-3-yl)-1-ethyl-N-(1-(5-methylisothiazol-3-yl)ethyl)-1H-pyrazole-5-carboxamide] | ≥ 80 | < 10 | < 100 |  | 
COc1cc2ncc(-c3cc(C(=O)NCc4cscn4)n(C)n3)n2cc1S(=O)(=O)C(C)(C)C [Example 85, 3-(6-(tert-butylsulfonyl)-7-methoxyimidazo[1,2-a]pyridin-3-yl)-1-methyl-N-(thiazol-4-ylmethyl)-1H-pyrazole-5-carboxamide] | ≥ 80 | 10 to 100 | 500 to 2500 |  | 
COc1cc2ncc(-c3cc(C(=O)N[C@H](C)c4ccccc4)n(C)n3)n2cc1S(=O)(=O)C(C)(C)C [Example 9, (R)-3-(6-(tert-butylsulfonyl)-7-methoxyimidazo[1,2-a]pyridin-3-yl)-1-methyl-N-(1-phenylethyl)-1H-pyrazole-5-carboxamide] | ≥ 80 | 10 to 100 | < 100 |  | 
CCn1nc(-c2cnc3cc(OCCO)c(S(=O)(=O)C(C)(C)C)cn23)cc1C(=O)N[C@H](C)c1ccn(C)n1 [Example 122, (R)-3-(6-(tert-butylsulfonyl)-7-(2-hydroxyethoxy)imidazo[1,2-a]pyridin-3-yl)-1-ethyl-N-(1-(1-methyl-1H-pyrazol-3-yl)ethyl)-1H-pyrazole-5-carboxamide] | ≥ 80 | 10 to 100 | < 100 |  | 
COc1cc2ncc(-c3cc(C(=O)N[C@H](C)c4ncccn4)n(C(C)C)n3)n2cc1S(=O)(=O)C(C)(C)C [Example 102, (R)-3-(6-(tert-butylsulfonyl)-7-methoxyimidazo[1,2-a]pyridin-3-yl)-1-isopropyl-N-(1-(pyrimidin-2-yl)ethyl)-1H-pyrazole-5-carboxamide] | ≥ 80 | < 10 | < 100 |  | 
